As usually defined, the IC50 is the concentration at which inhibition is half-maximal. A word on the EC50: it is the concentration giving half of the maximal effect.

The target of one assay is T1, rTRPV4 (Rattus norvegicus, UniProt Q9ERZ8).
T1 construct: expressed in transfected cells; host or cells: HEK-293
As to the kind of experiment: TRPV4 calcium influx assay (Fluo-4) in HEK-293 cells overexpressing rat recombinant TRPV4. Format: cell-based. To be noted: for IC50: against the effect of GSK1016790A (10 nM) after a 5-min pre-incubation, read-out: IC50 inh. TRPV4; for Efficacy %: as percent of the effect of ionomycin (4 µM), HEK-293 cells overexpressing rTRPV4, means ± SEM, n >= 3. From the text:
The interaction properties of all homodrimane-derived compounds 1–16, 18–19, and 22–25 with either TRPV type-4 or type-1 were studied in human embryonic kidney (HEK)-293 cells overexpressing either the rat recombinant type-4 (rTRPV4), which shares with the human orthologue ~95% of sequence identity, and the human recombinant type-1 (hTRPV1) channel, evaluating the changes in intracellular calcium levels. […] Cell fluorescence before and after the addition of various concentrations of test compounds was measured normalizing the effects against the response to ionomycin (4 μM). […] Dose-response curve fitting (sigmoidal dose-response variable slope) and parameter estimation were performed with Graph-Pad Prism8® (GraphPad Software Inc., San Diego, CA, USA). All determinations were performed at least in triplicate.

The next assay has as its target T2, hTRPV1 (Homo sapiens, UniProt Q8NER1).
T2 construct: expressed in transfected cells; host or cells: HEK-293
The assay can be described thus: TRPV1 calcium influx assay (Fluo-4) in HEK-293 cells overexpressing human recombinant TRPV1. Format: cell-based. To be noted: for Efficacy %: as percent of the effect of ionomycin (4 µM), HEK-293 cells overexpressing hTRPV1, means ± SEM, N >= 3; for IC50: read-out: IC50 inh TRPV1.

Where [1] appears, read: activation, half-maximal increase in [Ca2+]i, NA = not active (efficacy lower than 10%), read-out: Potency EC50.

“Also recorded” adds a separate entry of the source. Like-named read-outs stand apart in the source and are kept apart here.

T1 sequence (Q9ERZ8 whole entry): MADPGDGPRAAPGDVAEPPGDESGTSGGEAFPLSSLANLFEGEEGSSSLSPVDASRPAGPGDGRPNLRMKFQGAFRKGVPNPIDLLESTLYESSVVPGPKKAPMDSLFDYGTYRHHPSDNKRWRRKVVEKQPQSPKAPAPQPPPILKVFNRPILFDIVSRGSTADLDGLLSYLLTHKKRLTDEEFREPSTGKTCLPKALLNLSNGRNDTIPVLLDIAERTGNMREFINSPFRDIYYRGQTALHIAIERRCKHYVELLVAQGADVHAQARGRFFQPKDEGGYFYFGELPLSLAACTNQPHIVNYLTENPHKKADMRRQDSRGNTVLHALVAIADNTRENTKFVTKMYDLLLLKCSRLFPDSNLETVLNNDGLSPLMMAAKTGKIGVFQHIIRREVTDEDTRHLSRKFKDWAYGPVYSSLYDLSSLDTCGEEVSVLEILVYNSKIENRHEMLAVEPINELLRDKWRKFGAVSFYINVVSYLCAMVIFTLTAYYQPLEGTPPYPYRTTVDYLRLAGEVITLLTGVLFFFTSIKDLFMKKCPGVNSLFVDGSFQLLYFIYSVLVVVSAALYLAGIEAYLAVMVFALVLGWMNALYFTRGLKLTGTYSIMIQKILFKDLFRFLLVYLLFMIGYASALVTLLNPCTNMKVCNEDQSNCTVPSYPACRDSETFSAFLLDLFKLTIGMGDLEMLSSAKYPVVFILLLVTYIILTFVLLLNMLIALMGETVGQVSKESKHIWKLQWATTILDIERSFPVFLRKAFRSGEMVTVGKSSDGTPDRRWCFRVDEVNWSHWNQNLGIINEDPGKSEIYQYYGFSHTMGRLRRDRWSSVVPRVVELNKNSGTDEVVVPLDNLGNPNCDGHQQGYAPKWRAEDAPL
T2 sequence (Q8NER1 whole entry): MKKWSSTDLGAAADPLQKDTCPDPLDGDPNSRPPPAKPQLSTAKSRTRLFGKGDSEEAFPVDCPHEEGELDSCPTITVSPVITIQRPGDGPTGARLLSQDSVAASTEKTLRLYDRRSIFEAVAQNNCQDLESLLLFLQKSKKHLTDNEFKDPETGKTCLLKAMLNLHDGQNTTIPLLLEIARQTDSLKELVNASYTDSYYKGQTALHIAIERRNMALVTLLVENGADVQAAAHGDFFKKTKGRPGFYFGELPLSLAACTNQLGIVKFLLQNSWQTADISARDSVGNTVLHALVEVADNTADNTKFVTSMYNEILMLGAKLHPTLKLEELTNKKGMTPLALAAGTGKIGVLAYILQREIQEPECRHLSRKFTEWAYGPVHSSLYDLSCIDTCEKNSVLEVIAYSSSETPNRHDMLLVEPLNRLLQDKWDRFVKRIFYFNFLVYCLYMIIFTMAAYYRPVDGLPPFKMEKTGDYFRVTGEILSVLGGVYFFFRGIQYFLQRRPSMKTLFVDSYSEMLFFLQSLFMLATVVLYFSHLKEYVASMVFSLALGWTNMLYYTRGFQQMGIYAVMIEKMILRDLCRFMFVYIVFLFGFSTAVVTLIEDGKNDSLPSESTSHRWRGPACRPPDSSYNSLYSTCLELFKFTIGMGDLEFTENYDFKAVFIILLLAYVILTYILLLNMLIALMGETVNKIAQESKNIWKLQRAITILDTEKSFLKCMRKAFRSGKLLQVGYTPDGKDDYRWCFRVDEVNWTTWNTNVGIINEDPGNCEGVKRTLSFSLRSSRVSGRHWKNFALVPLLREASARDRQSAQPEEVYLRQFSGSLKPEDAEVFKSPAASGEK

Take `CC1(C)CCC[C@]2(C)[C@@H](CC(=O)OCc3ccc(Cl)c(Cl)c3)[C@](C)(O)CC[C@@H]12` [Compound 19, 3,4-dichlorobenzyl 2-((1R,2R,4aS,8aS)-2-hydroxy-2,5,5,8a-tetramethyldecahydronaphthalen-1-yl)acetate]: at rTRPV4, the “activity on rTRPV4 in words” value was “completely devoid of activity”, the IC50 was above 100 µM and the Efficacy % is on record as below 10%. At hTRPV1, the Efficacy % turned out to be 17.5 ± 2.7% and the 50% inhibitory concentration (IC50) was above 100 µM.
For the compound `CC1(C)CCC[C@]2(C)[C@@H](CC(=O)NCCc3ccc(Cl)cc3)[C@](C)(O)CC[C@@H]12` [Compound 11, N-(4-chlorophenethyl)-2-((1R,2R,4aS,8aS)-2-hydroxy-2,5,5,8a-tetramethyldecahydronaphthalen-1-yl)acetamide], on rTRPV4, the IC50 worked out at 7 ± 0.1 µM and the Efficacy % was below 10%. The IC50 on hTRPV1 was above 100 µM.
For the compound `CC1(C)CCC[C@]2(C)[C@@H](CCOC(=O)CCCc3cccs3)[C@](C)(O)CC[C@@H]12` [Compound 24, 2-((1R,2R,4aS,8aS)-2-hydroxy-2,5,5,8a-tetramethyldecahydronaphthalen-1-yl)ethyl 4-(thiophen-2-yl)butanoate], on rTRPV4, the IC50 was above 100 µM and the Efficacy % is reported as below 10%. Moreover, at hTRPV1, the IC50 is above 100 µM.
On to `CC1(C)CCC[C@]2(C)[C@@H](CC(=O)NCc3ccc(-c4ccccc4)cc3)[C@](C)(O)CC[C@@H]12` [Compound 15, N-((1,1′-biphenyl)-4-ylmethyl)-2-((1R,2R,4aS,8aS)-2-hydroxy-2,5,5,8a-tetramethyldecahydronaphthalen-1-yl)acetamide], for which, on rTRPV4, the “activity on rTRPV4 in words” value is “completely devoid of activity”, the IC50 is above 100 µM and the Efficacy % was below 10%. Also, the IC50 on hTRPV1 is above 100 µM.
With `CC1(C)CCC[C@]2(C)[C@@H](CC(=O)NCCc3cccc(F)c3)[C@](C)(O)CC[C@@H]12` [Compound 13, N-(3-fluorophenethyl)-2-((1R,2R,4aS,8aS)-2-hydroxy-2,5,5,8a-tetramethyldecahydronaphthalen-1-yl)acetamide], on rTRPV4, the IC50 came out at 11.9 ± 0.4 µM and the Efficacy % was below 10%. Further, on hTRPV1, the Efficacy % is 20.8 ± 1.6% and the IC50 is above 50 µM.
In the case of `COc1cccc(CNC(=O)C[C@@H]2[C@@]3(C)CCCC(C)(C)[C@@H]3CC[C@@]2(C)O)c1` [Compound 9, 2-((1R,2R,4aS,8aS)-2-hydroxy-2,5,5,8a-tetramethyldecahydronaphthalen-1-yl)-N-(3 methoxybenzyl)acetamide], on rTRPV4, the IC50 was found to be 18.1 ± 0.2 µM and the Efficacy % is listed as below 10%. Besides, the IC50 on hTRPV1 is above 100 µM.
Regarding `CC1(C)CCCC2(C)C1CCC(C)(O)C2CCO` (centres unmarked) [Compound 21], on rTRPV4, the “activity on rTRPV4 in words” value was “unable to modulate either channel; also recorded: inactive”, the half-inhibitory concentration (IC50) is above 100 µM and the Efficacy % was below 10%. Moreover, on hTRPV1, the “activity on hTRPV1 in words” value was “unable to modulate either channel” and the IC50 is above 100 µM.
Consider `CC1(C)CCC[C@]2(C)[C@@H](CCOCc3cccc(Cl)c3)[C@](C)(O)CC[C@@H]12` [Compound 25, (1R,2R,4aS,8aS)-1-(2-((3-Chlorobenzyl)oxy)ethyl)-2,5,5,8a-tetramethyldecahydronaphthalen-2-ol], for which, on rTRPV4, the “activity on rTRPV4 in words” value is “inactive”, the concentration for half-maximal inhibition (IC50) was above 100 µM and the Efficacy % was below 10%. Besides, at hTRPV1, the “activity on hTRPV1 in words” value was “inactive” and the IC50 was above 100 µM.
As to `CC1(C)CCC[C@]2(C)[C@@H](CC(=O)Nc3ccccc3)[C@](C)(O)CC[C@@H]12` [Compound 1, 2-((1R,2R,4aS,8aS)-2-Hydroxy-2,5,5,8a-tetramethyldecahydronaphthalen-1-yl)-N-phenylacetamide], at rTRPV4, the IC50 is above 100 µM and the Efficacy % was below 10%. For the same compound, on hTRPV1, the Efficacy % is reported as 33.6 ± 0.8% and the IC50 was above 100 µM.
In the case of `CC1(C)CCC[C@]2(C)[C@@H](CC(=O)NCCc3ccccc3)[C@](C)(O)CC[C@@H]12` [Compound 10, 2-((1R,2R,4aS,8aS)-2-hydroxy-2,5,5,8a-tetramethyldecahydronaphthalen-1-yl)-N-phenethylacetamide], at rTRPV4, the IC50 came to 15.6 ± 0.3 µM and the Efficacy % is below 10%.
Regarding `CC1(C)CCC[C@]2(C)[C@@H](CC(=O)NCCc3ccc(F)cc3)[C@](C)(O)CC[C@@H]12` [Compound 12, N-(4-fluorophenethyl)-2-((1R,2R,4aS,8aS)-2-hydroxy-2,5,5,8a-tetramethyldecahydronaphthalen-1-yl)acetamide], on rTRPV4, the IC50 amounted to 11.4 ± 0.1 µM and the Efficacy % is below 10%. Further, the IC50 at hTRPV1 is above 100 µM.
As to `CC1(C)CCC[C@]2(C)[C@@H](CC(=O)Nc3ccccc3-n3cccc3)[C@](C)(O)CC[C@@H]12` [Compound 3, N-(2-(1H-pyrrol-1-yl)phenyl)-2-((1R,2R,4aS,8aS)-2-hydroxy-2,5,5,8a-tetramethyldecahydronaphthalen-1-yl)acetamide], on rTRPV4, the “activity on rTRPV4 in words” value was “good rTRPV4 agonist”, the IC50 is 6 ± 0.1 µM and the Efficacy % is recorded as 14.6 ± 1.5%. The EC50 at rTRPV4 (setting [1]) amounted to 1.1 ± 1 µM. Also, the EC50 at hTRPV1 (activation, NA = not active (efficacy lower than 10%), read-out: Potency EC50) worked out at 4.7 ± 0.4 µM. Further, at hTRPV1, the Efficacy % amounted to 32.0 ± 1.2% and the IC50 is above 100 µM.
Regarding `CC1(C)CCC[C@]2(C)[C@H]3CC(=O)O[C@]3(C)CC[C@@H]12` [Scd, (+)-Sclareolide, reference compound], on rTRPV4, the “activity on rTRPV4 in words” value was “unable to modulate either channel; also recorded: inactive”, the IC50 is above 100 µM and the Efficacy % is 11.3 ± 0.7%. Further, on rTRPV4 (setting [1]), the EC50 was above 10 µM. For the same compound, at hTRPV1, the “activity on hTRPV1 in words” value is “unable to modulate either channel”, the Efficacy % is 12.6 ± 0.5% and the IC50 was above 100 µM.
As to `CC1(C)CCC[C@]2(C)[C@@H](CC(=O)NCCCn3ccnc3)[C@](C)(O)CC[C@@H]12` [Compound 16, N-(3-(1H-imidazol-1-yl)propyl)-2-((1R,2R,4aS,8aS)-2-hydroxy-2,5,5,8a-tetramethyldecahydronaphthalen-1-yl)acetamide], on rTRPV4, the “activity on rTRPV4 in words” value is “complete loss of activity”, the IC50 was above 100 µM and the Efficacy % is recorded as below 10%. Also, at hTRPV1, the IC50 is above 100 µM.
For the compound `CC(C)C[C@H](NC(=O)c1cc2ccccc2s1)C(=O)N1CCN(C(=O)[C@H](CO)NS(=O)(=O)c2ccc(Cl)cc2Cl)CC1` [GSK1016790A, N-((1S)-1-{[4-((2S)-2-{[(2,4-dichlorophenyl)sulfonyl]amino} -3-hydroxypropanoyl)-1-piperazinyl]carbonyl}-3-methylbutyl)-1-benzothiophene-2-carboxamide, reference compound], the 50% effective concentration (EC50) at rTRPV4 is 0.0035 µM.
As to `CC1(C)CCC[C@]2(C)[C@@H](CC(=O)NCc3ccco3)[C@](C)(O)CC[C@@H]12` [Compound 14, N-(furan-2-ylmethyl)-2-((1R,2R,4aS,8aS)-2-hydroxy-2,5,5,8a-tetramethyldecahydronaphthalen-1-yl)acetamide], at rTRPV4, the “activity on rTRPV4 in words” value is recorded as “very weak antagonist properties”, the IC50 was found to be 53.5 ± 1.8 µM and the Efficacy % is reported as below 10%. In addition, at hTRPV1, the Efficacy % is 25.2 ± 2.0% and the IC50 was above 100 µM.
For the compound `CC1(C)CCC[C@]2(C)[C@@H](CC(=O)NCc3ccc(Cl)cc3)[C@](C)(O)CC[C@@H]12` [Compound 5, N-(4-chlorobenzyl)-2-((1R,2R,4aS,8aS)-2-hydroxy-2,5,5,8a-tetramethyldecahydronaphthalen-1-yl)acetamide], at rTRPV4, the IC50 came to 7.7 ± 0.3 µM and the Efficacy % was below 10%. In addition, the IC50 on hTRPV1 is above 100 µM.
For the compound `COC(=O)CC1C(C)(O)CCC2C(C)(C)CCCC21C` (centres unmarked) [Compound 20], on rTRPV4, the “activity on rTRPV4 in words” value is “inactive”, the IC50 was above 100 µM and the Efficacy % was below 10%. On hTRPV1, the “activity on hTRPV1 in words” value is “inactive” and the IC50 is above 100 µM.
With `CC1(C)CCC[C@]2(C)[C@@H](CC(=O)Nc3cc(F)ccc3F)[C@](C)(O)CC[C@@H]12` [Compound 2, N-(2,5-difluorophenyl)-2-((1R,2R,4aS,8aS)-2-hydroxy-2,5,5,8a-tetramethyldecahydronaphthalen-1-yl)acetamide], at rTRPV4, the IC50 is above 100 µM and the Efficacy % is reported as below 10%. For the same compound, the IC50 at hTRPV1 is above 100 µM.
For `COc1ccc(CNC(=O)C[C@@H]2[C@@]3(C)CCCC(C)(C)[C@@H]3CC[C@@]2(C)O)cc1` [Compound 8, 2-((1R,2R,4aS,8aS)-2-hydroxy-2,5,5,8a-tetramethyldecahydronaphthalen-1-yl)-N-(4-methoxybenzyl)acetamide], on rTRPV4, the IC50 was found to be 29.7 ± 0.7 µM and the Efficacy % is recorded as below 10%. On hTRPV1, the Efficacy % is 19.7 ± 1.1% and the IC50 is above 100 µM.
`CC1(C)CCC[C@]2(C)[C@@H](CC(=O)NCc3ccccc3)[C@](C)(O)CC[C@@H]12` [Compound 4, N-benzyl-2-((1R,2R,4aS,8aS)-2-hydroxy-2,5,5,8a-tetramethyldecahydronaphthalen-1-yl)acetamide]: the IC50 on rTRPV4 stood at 32 ± 0.8 µM. In addition, the Efficacy % was below 10% on rTRPV4 and 36.8 ± 0.2% at hTRPV1.
